# Publication PMC7738869, “A novel STAT3 inhibitor W2014-S regresses human non-small cell lung cancer xenografts and sensitizes EGFR-TKI acquired resistance” (Theranostics, 2021)
# Key:
# A549 cells = assay: Cell viability assay (CCK-8), A549; assay type: cell-based; settings: Homo sapiens, A549, 72 h, read-out: IC50 cell proliferation, A549, 72 h
# Procedure: Cell proliferation was measured using the Cell Counting Kit-8 (CCK-8, B34304, Bimake, USA). A549 (2 × 10^3/100 μL/well), PC-9 (3 × 10^3/100 μL/well) or PC-9/GR cells (3 × 10^3/100 μL/well) were plated into each well of 96-well plates (Costar, USA). […] Then, 10 μL of CCK-8 was added to each well, and cells were incubated for 1-4 h until the color of untreated controls turned to orange. The absorbance (A) was measured by a microplate reader (FLUOstar Omega-ACU, USA) at test and reference wavelengths of 450 nm. The percentage of growth was calculated as Cell viability (%) = [A (Compound +) - A (Blank) ] / [A (Compound -) - A (Blank) ] × 100%. Cell viability meant proliferation of cells. Each experiment was done at least in triplicate, and thrice independently.
# PC-9 cells = assay: Cell apoptosis assay (Annexin V-FITC/PI flow cytometry), PC-9; assay type: cell-based, human; settings: PC-9, 1.0 μM, 72 h
# Procedure: Briefly, aliquots of 2 × 10^5 cells were seeded into 6-well plates and incubated for 24 h at 37 °C. […] After trypsinization and gently washing cells once with medium, the cells were washed twice with cold PBS. The precipitation was resuspended by 400 μL of 1 × binding buffer, and then resuspended cells were transferred into new 1.5 mL EP tubes. Then 3 μL of Annexin V-FITC and 5 μL of propidium iodide were added to the resuspended cells with further incubation at room temperature for 15 min in the dark. The analysis was done on Guava easyCyte (USA) and FlowJo 7.6 software.
# c-Caspase-7 = assay: Western blot of c-Caspase-7 in A549 and PC-9 cells; assay type: cell-based, human
# Procedure: (§1) Cells or tumor tissue were lysed with RIPA buffer (Beyotime, Shanghai, China) supplemented with protease inhibitors (Beyotime, Shanghai, China) and phosphatase inhibitors (Bimake, USA). Lysates were denatured by heating for 5 min at 99 °C and loaded on 4-10% SDS-polyacrylamide gel electrophoresis. Then the proteins were transferred to polyvinylidene fluoride (PVDF) membranes (Millipore, USA). The membranes were blocked and probed with primary antibodies and secondary HPR-conjugated antibodies. At last the membranes were detected by chemiluminescence (Tanon, Shanghai, China). For co-immunoprecipitation experiments, 293T cells were plated and grew to about 80% confluency, then co-transfected with plasmids of HA-STAT3 and Flag-STAT3 using Lipofectamine 2000. After 24 h, cells were treated with different concentrations of W2014-S for following 24 h, and stimulated with IL-6 (100 ng/mL) for 1 h. Cells were lysed with IP RIPA buffer (Beyotime, Shanghai, China) supplemented with protease inhibitors (Beyotime, Shanghai, China) and phosphatase inhibitors (Bimake, America), and lysates were cultured with Anti-flag Affinity Gel (B23102, Bimake, USA) overnight at 4 ℃. The gel was washed by PBST for three times and added 1×loading buffer and denatured by heating for 5 min at 99 ℃. Then the proteins were resolved on SDS-PAGE, transferred to PVDF membranes and analysed with immunoblotting.
# pY705-STAT3 = assay: Immunofluorescence of nuclear pY705-STAT3 in A549 cells; assay type: cell-based, human; settings: A549, 3 h treatment
# Procedure: A549 cells were cultured into confocal dishes (Costar, USA). After 24 h, W2014-S was added into dishes. After another 3 h, cells were fixed with 4% paraformaldehyde in PBS for 10 min at room temperature. Then cells were permeabilized with 0.3% Trition X-100 for 5 min at room temperature, following by incubating with primary antibody overnight at 4 ℃. Next, cells were incubated with Alexa-Fluor-conjugated secondary antibodies for 1 h in the dark. The cells were subsequently stained with DAPI (40728ES50, Yeasen, Shanghai, China). Images were captured by Laser Scanning Confocal Microscope FV3000 (Olympus, Japan). Z-stacks were collected with a spacing of 1 μm. Antibody and dilutions used in the studies were: pY705-STAT3 (9145S, Cell Signaling Technology, 1:100), Alexa Fluor 488 Conjugate (1:5000, #4412, Cell signaling Technology, USA). The fluorescence intensity profile along the Z-axis from confocal Z-stacks was shown. The fluorescence intensity of nuclear-localized p-STAT3 was quantified using the confocal software to define the area of the selected region of interest based on the nuclear DAPI signal. Each experiment was done in at least 3 independent experiments.
# [1] = test system: PDX (TM00192/LG0567F, lung adenocarcinoma); assay: Lung cancer PDX tumor xenografts in nude mice; assay type: in vivo
# Procedure: To establish cell xenograft model, nude mice were injected subcutaneously with A549 cells (2×10^6) or PC-9/GR cells (4×10^6). For PDX model, the PDX sample was from The Jackson Laboratory. The model ID is TM00192/LG0567F. For this patient, the primary site is lung, the initial and diagnosis and final diagnosis is lung adenocarcinoma. The stage/grade is AJCC IB/grade 3. […] The sample type is surgical resection. […] The tumor sample were cut into approximately 1 mm^3, and the tissue was pushed under skin of mice by TROCHAR. When tumor volumes reached approximately 100 mm^3, mice were randomly distributed into groups of 7 mice. […] Tumor size was measured every two days by vernier caliper. The average tumor volume in each group was calculated based on the equation for a prolate spheroid (tumor volume = (short-diameter)^2 × large-diameter × π / 6 ) and expressed in mm^3.
# STAT3-STAT3 dimerization = STAT3-STAT3 dimerization (Homo sapiens, UniProt P40763); assay: Co-immunoprecipitation of HA-STAT3 and Flag-STAT3 in HEK-293T cells; assay type: cell-based; parameters: expressed in transfected cells; settings: 24 h, 50 ng/mL EGF 30 min
# STAT3-STAT3 dimerization, sequence (P40763 whole entry): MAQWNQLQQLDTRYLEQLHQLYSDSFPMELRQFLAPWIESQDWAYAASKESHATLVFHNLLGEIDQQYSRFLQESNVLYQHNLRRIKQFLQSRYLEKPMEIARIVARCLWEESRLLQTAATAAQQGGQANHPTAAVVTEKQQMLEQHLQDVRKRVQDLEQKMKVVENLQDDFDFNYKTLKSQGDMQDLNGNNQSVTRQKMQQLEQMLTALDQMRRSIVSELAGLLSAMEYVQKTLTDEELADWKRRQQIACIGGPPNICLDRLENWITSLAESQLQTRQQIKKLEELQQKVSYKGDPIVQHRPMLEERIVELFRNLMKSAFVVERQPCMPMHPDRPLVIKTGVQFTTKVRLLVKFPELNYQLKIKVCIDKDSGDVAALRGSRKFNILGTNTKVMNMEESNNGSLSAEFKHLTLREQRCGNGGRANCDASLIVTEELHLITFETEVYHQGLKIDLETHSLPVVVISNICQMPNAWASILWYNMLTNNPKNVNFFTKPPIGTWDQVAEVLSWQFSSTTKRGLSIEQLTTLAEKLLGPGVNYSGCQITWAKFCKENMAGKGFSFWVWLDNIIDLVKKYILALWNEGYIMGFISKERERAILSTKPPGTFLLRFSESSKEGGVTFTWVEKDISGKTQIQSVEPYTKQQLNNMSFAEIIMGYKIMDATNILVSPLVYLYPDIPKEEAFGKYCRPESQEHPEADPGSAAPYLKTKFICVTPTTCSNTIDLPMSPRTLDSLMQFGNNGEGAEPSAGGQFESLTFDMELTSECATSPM
# Procedure: as §1, with “After 24 h, cells were treated with different concentrations of W2014-S for following 24 h, and stimulated with IL-6 (100 ng/mL) for 1 h.” left out
smiles,measurement,setting,value
C[C@H](Oc1ccc(-c2nc3nc(C4=CCN(C(=O)OC(C)(C)C)CC4)ccc3[nH]2)cc1)c1ccccc1 [W2014-S],IC50,A549 cells,890 nM
same,apoptosis,PC-9 cells,induced apoptosis
same,cleavage of caspase-7,c-Caspase-7,induced
same,accumulation of pY705-STAT3 in the nucleus,pY705-STAT3,decreased
same,level of pY705-STAT3 in tumor (western blot),[1]; PDX,significantly suppressed the level of pY705-STAT3
same,body weights and signs of toxicity during treatment,"[1]; PDX mice, 5 or 15 mg/kg daily, 21 d","no significant changes in body weights, or obvious signs of toxicity"
same,growth of xenografts,"[1]; PDX, i.p. 5 or 15 mg/kg daily, 21 d",significantly inhibited growth
same,expression of Ki-67 in tumor (IHC),"[1]; PDX, vs vehicle",significantly reduced
same,binding of HA-STAT3 and Flag-STAT3 (STAT3 dimerization),STAT3-STAT3 dimerization,inhibited the binding of HA-STAT3 and Flag-STAT3 in intact cells even at 0.3 μM
